Our source for the Kd values is article PMC11395219 (Molecular Cancer, 2024).

The test deals with T1, Vitamin D receptor (VDR) (Homo sapiens, UniProt P11473).
T1 sequence (P11473 118-427 limits assumed): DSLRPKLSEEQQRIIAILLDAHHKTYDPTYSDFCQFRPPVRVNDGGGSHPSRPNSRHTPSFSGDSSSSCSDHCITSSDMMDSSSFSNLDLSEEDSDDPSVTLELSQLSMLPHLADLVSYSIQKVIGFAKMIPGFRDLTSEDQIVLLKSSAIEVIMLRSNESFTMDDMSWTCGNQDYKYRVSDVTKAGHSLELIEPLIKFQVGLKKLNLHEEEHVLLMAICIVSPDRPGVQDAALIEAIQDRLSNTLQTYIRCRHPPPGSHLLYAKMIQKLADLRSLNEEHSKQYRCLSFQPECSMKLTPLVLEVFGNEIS
Briefly: SPR. In kind it is binding.

`O=c1cc(-c2ccc(O)cc2)oc2c([C@@H]3O[C@H](CO)[C@@H](O)[C@H](O)[C@H]3O)c(O)cc(O)c12` [vitexin] returned a Kd of 34.7 µM.

By Kd is commonly meant the constant that tells how readily two partners part at equilibrium. A low value points to tighter binding.
